Experimental data published in PubChem BioAssay (NCI).
“And” between values parts separate entries of the source, which are not always exact repeats. Equal values may be shown once.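 All cell lines were grown in 96-well plates and treated with compound for 48 hours. GI50: concentration for 50% inhibition of growth. TGI marks complete inhibition of growth.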

How the values were obtained:
Assay in all cases: NCI tumour cell line growth inhibition, 48 h
BT-549 breast = system: BT-549 breast
CAKI-1 renal = system: CAKI-1 renal
HL-60(TB) leukemia = system: HL-60(TB) leukemia
IGROV1 ovarian = system: IGROV1 ovarian
KM12 colon = system: KM12 colon
M14 melanoma = system: M14 melanoma
OVCAR-8 ovarian = system: OVCAR-8 ovarian
SNB-19 CNS = system: SNB-19 CNS
SNB-75 CNS = system: SNB-75 CNS
TK-10 renal = system: TK-10 renal

Compound	GI50 (BT-549 breast) [µM]	TGI (BT-549 breast)	GI50 (CAKI-1 renal) [µM]	TGI (CAKI-1 renal)	GI50 (HL-60(TB) leukemia) [µM]	TGI (HL-60(TB) leukemia) [µM]	GI50 (IGROV1 ovarian) [µM]	TGI (IGROV1 ovarian)	GI50 (KM12 colon) [µM]	TGI (KM12 colon)	GI50 (M14 melanoma) [µM]	TGI (M14 melanoma)	GI50 (OVCAR-8 ovarian) [µM]	TGI (OVCAR-8 ovarian)	GI50 (SNB-19 CNS) [µM]	TGI (SNB-19 CNS)	GI50 (SNB-75 CNS) [µM]	TGI (SNB-75 CNS)	GI50 (TK-10 renal) [µM]	TGI (TK-10 renal)
CC(C)(C)[Si](C)(C)OC1[C@@H](O[Si](C)(C)C(C)(C)C)[C@@H](CNC(=O)NC(=O)NC(=O)CCl)O[C@H]1n1cnc2c(NC(=O)Nc3ccccc3)ncnc21 (some centres undefined)	6.57	13.1 µM	2.2	9.42 µM	1.45	3.22	0.361	1.33 µM	1.84	6.12 µM	5.34	11.8 µM	0.955	3.77 µM	15.7	48.6 µM	5.84	13.9 µM	2.42	7.81 µM
C=C1C[C@@H](O)[C@@H](Br)C(C)(C)[C@]12CCC(C)(Br)C(Cl)C2 (some centres undefined)	18.9	> 50 µM and 38.3 µM	18.3	> 50 µM and 37.2 µM		11.8	18	> 50 µM and 36.1 µM	0.28	16.7 µM and 10.5 µM	17.9	> 50 µM and 34.6 µM	21.7	> 50 µM and 50.1 µM	17.6	> 50 µM and 33.2 µM	18.5	> 50 µM and 34.6 µM	15.7	> 50 µM and 29.8 µM
CCCCCCCCCCCCNC(=O)N[C@H](C(=O)N[C@H]1/C=C/CCNC(=O)/C=C/[C@H](C)NC1=O)C(C)C	0.0228	0.0701 µM	4.95	> 100 µM	0.143	13.3	0.06	2.24 µM	0.0222	0.0519 µM	0.221	4.6 µM	0.463	4.19 µM	0.0647	15 µM	0.0345	0.155 µM	0.0352	0.191 µM
C[C@]12CCCN1CC1=NNC(=O)c3cc(F)cc4[nH]c2c1c34	23.2	99.6 µM	7.73	> 100 µM	25	66.9	21.5	> 100 µM	9.6	30.3 µM	18.5	59.6 µM	19.5	> 100 µM	25.1	> 100 µM	13.6	35.9 µM	22.6	> 100 µM
Cc1cc2c(C(=O)NCC#N)cccc2n1-c1nc2c(c(NCc3ccccc3)n1)CCCC2	0.251	0.7 µM	0.666	> 100 µM	0.311	> 100	0.315	1.24 µM	0.242	0.643 µM	0.22	0.532 µM	0.34	1.98 µM	0.499	2.91 µM	0.345	1.74 µM	0.331	0.976 µM
CC(=O)NC(CS)C(=O)O (centres undefined)		> 100 µM	> 100	> 100 µM and 53400 µM	> 100	> 100		16600 µM	> 100	> 100 µM and 98100 µM	> 100	> 100 µM and 35500 µM	> 100	> 100 µM and 88800 µM	> 100	> 100 µM	> 100	> 100 µM and 89800 µM	> 100	> 100 µM and 76500 µM
O=C(O)c1ccc(NCc2nc3ccccc3[nH]2)cc1	> 100	> 100 µM	> 100	> 100 µM	> 100	> 100	> 100	> 100 µM	> 100	> 100 µM	> 100	> 100 µM	> 100	> 100 µM	> 100	> 100 µM	> 100	> 100 µM	> 100	> 100 µM
COc1ccc(Cc2cc(OC)c(OC)c(OC)c2)cc1		75.6 µM		> 51.7 µM		0.308		> 100 µM		> 100 µM		> 100 µM		27 µM		> 100 µM		> 18.5 µM		> 100 µM
O=C(NCCCl)NCCN1c2nc3ccccc3cc2Sc2cc3ccccc3nc21	7.01	> 48.6 µM	14.7	> 55.3 µM	1.71	5.12	0.71	25.3 µM	2.67	16.1 µM	1.77	6.73 µM	3.03	20.8 µM	5.58	> 46.8 µM	0.558	5.47 µM	7.12	28.1 µM
CC1NC(C(=O)O)Cc2cc(O)c(O)cc21 (centres undefined)		> 100 µM		> 100 µM		> 100		> 100 µM		> 100 µM		> 100 µM		> 100 µM		> 100 µM				> 100 µM
CCC1=C[C@@H]2CN(C1)Cc1c([nH]c3ccccc13)[C@@](C(=O)OC)(c1cc3c(cc1OC)N(C)[C@H]1[C@@](O)(C(=O)OC)[C@H](OC(C)=O)[C@]4(CC)C=CCN5CC[C@]31[C@@H]54)C2	< 0.0107	8.82 µM		2.52 µM	< 0.01	< 0.01	< 0.0136	0.463 µM			0.0103	1.01 µM	< 0.0213	25.6 µM	< 0.01	18.9 µM	< 0.01	7.92 µM	0.641	16.7 µM
C[C@@H]1CC[C@H]2[C@@H](C)C(OC/C=C/COC3O[C@@H]4O[C@@]5(C)CC[C@H]6[C@H](C)CC[C@@H]([C@H]3C)[C@@]46OO5)O[C@@H]3O[C@@]4(C)CC[C@@H]1[C@]32OO4 (some centres undefined)	0.0304	> 100 µM	0.046	2.87 µM	< 0.01		0.77	38 µM	< 0.01		0.0265	19.1 µM	< 0.01	> 38 µM	5.19	> 100 µM			< 0.0104	24.8 µM
CCOC(=O)C1=C(C)NC(C)=C(C(=O)OCCNC(=O)c2ccc(N=[N+]=[N-])cc2)C1c1ccccc1C(F)(F)F (centres undefined)		68.2 µM		21.5 µM		14.7		21.5 µM		21.5 µM		21.5 µM		21.5 µM		21.5 µM				31.1 µM
COc1cccc(CCNC(=O)CC(c2ccccc2)(c2ccccc2)c2ccccc2)c1	> 100	> 100 µM	3.16	50.9 µM	17.5	> 100			4.75	> 100 µM			4.98	47.7 µM	90.1	> 100 µM	> 100	> 100 µM	21.9	82.2 µM
